Measured values: patent publication US20260223841A1 (priority 2023, published 2026)
Where two headings read alike, the source gives them in different places.

Columns and labels:
[1] = system: Xylella fastidiosa subsp. fastidiosa IVIA5387.2; test: microbe, parasite or virus in culture; conditions: 0.5 h, read-out: minimum bactericidal concentration (MBC)
[2] = system: Xylella fastidiosa subsp. fastidiosa IVIA5387.2
[3] = system: Xylella fastidiosa subsp. multiplex IVIA5901; test: microbe, parasite or virus in culture; assay type: cell-based; conditions: 0.5 h, read-out: minimum bactericidal concentration (MBC)
[4] = system: Xylella fastidiosa subsp. fastidiosa IVIA5387.2; assay type: in vivo, Prunus dulcis; conditions: 33 mg/ml trunk microinjection, 2 mg/plant, preventive + curative
[5] = system: Xylella fastidiosa subsp. pauca DeDonno; test: microbe, parasite or virus in culture; assay type: cell-based; conditions: 0.5 h, read-out: minimum bactericidal concentration (MBC)
[6] = system: Liberibacter crescens strain BT-1 (cultured surrogate for Candidatus Liberibacter spp.); test: microbe, parasite or virus in culture; conditions: 0.5 h, read-out: minimum bactericidal concentration (MBC)
Erwinia amylovora EPS101 = assay type: cell-based
[7] = system: Liberibacter crescens strain BT-1 (cultured surrogate for Candidatus Liberibacter spp.); conditions: 100 and 250 μg/ml; 30 or 120 minutes of contact
[8] = 50 μg/ml, after 30 min of contact
[9] = 50 μg/ml, after 120 min of contact

With CCCCCCCCCCCC(=O)OCC(O)CO (stereo not shown) [Compound of formula (I), 2,3-dihydroxypropyl dodecanoate] the MBC [1] was roughly 50 µg/mL, the survival [2, 8] was “about 27.6%” and the “survival (log CFU/ml)” value [2, 8] was 2.26 log CFU/ml. For the same compound, the survival [2, 9] was roughly 23.1%, the “survival (Log CFU/ml)” value [2, 9] was 1.87 Log CFU/ml and the “mortality (no growth observed)” value ([2]; 100 and 75 μg/ml, 30 or 120 minutes of contact) was “about 100%”. The MBC [3] was less than 250 µg/mL, the “severity scale score (almond leaf scorch, 0-5)” value (“severity scale score” for short) ([4]; 55 days after infection) was 0.11 and the “severity scale score” value ([4]; 62 days after infection) was 0.44. The “severity scale score” value ([4]; 82 days after infection) was 0.42, the “severity scale score” value ([4]; 115 days after infection) was 1.17 and the “severity scale score” value ([4]; 140 days after infection) was 2.33. The MBC [5] was less than 250 µg/mL, the MBC [6] was less than 100 µg/mL and the “bactericidal effect (bacterial growing, not quantitative)” value (Erwinia amylovora EPS101) was “no bactericidal effect”. The “mortality (no growth observed)” value [7] was “about 100%”.
